# Biological target: T1, Neuropeptide Y receptor type 5 (Homo sapiens, UniProt Q15761)
# T1 sequence (Q15761 whole entry): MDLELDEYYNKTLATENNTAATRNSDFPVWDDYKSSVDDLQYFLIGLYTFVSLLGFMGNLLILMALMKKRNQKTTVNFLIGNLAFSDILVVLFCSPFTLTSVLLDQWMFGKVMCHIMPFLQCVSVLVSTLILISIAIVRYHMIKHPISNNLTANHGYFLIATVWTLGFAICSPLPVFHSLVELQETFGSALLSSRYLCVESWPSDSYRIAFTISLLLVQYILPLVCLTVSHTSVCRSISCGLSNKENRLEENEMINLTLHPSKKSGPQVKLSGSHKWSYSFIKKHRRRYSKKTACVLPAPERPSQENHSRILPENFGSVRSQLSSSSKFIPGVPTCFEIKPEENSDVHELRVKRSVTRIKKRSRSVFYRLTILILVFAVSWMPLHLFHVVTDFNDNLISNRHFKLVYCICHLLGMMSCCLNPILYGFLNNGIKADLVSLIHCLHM
# Test: Displacement of [125I]PYY from human Neuropeptide Y receptor type 5 in COS-7 cell membranes
row,Structure (SMILES),Ki
1,Cc1ccc(S(=O)(=O)NC(Cc2ccccc2)C(=O)NC[C@H]2CC[C@H](CNS(=O)(=O)c3ccc4ccccc4c3)CC2)cc1 (some centres undefined),199 nM
2,O=C(NC[C@H]1CC[C@H](CNS(=O)(=O)c2ccc3ccccc3c2)CC1)C1CCc2ccccc2C1 (some centres undefined),> 100000 nM
3,O=C(NC[C@H]1CC[C@H](CNS(=O)(=O)c2ccc3cccc([N+](=O)[O-])c3c2)CC1)C1CCc2ccccc2C1 (some centres undefined),724 nM
4,O=C(NC[C@H]1CC[C@H](CNS(=O)(=O)c2ccccc2[N+](=O)[O-])CC1)Nc1cccc2ccccc12,103 nM
5,O=S(=O)(NC[C@H]1CC[C@H](CNCc2ccc3c(c2)OCCO3)CC1)c1cccc2ccccc12,12 nM
6,O=C(NC[C@H]1CC[C@H](CNS(=O)(=O)c2cccc3ccccc23)CC1)Nc1ccc(Cl)c(Cl)c1,95 nM

# The next lines start with the values.
row,Ki,Structure (SMILES)
1,412 nM,O=C(NCCCCCCNS(=O)(=O)c1ccccc1[N+](=O)[O-])c1ccc2ccccc2c1
2,724 nM,O=C(NCCCCCCNS(=O)(=O)c1cccc2ccccc12)C1CCc2ccccc2C1 (centres undefined)
3,426 nM,Cc1ccc(S(=O)(=O)NC(Cc2ccccc2)C(=O)NCCCCCCNS(=O)(=O)c2cccc3ccccc23)cc1 (centres undefined)
4,231 nM,O=C(NCCCCCCNS(=O)(=O)c1cccc2ccccc12)Nc1cccc2ccccc12
5,151 nM,O=C(NCCCCCCNS(=O)(=O)c1ccccc1[N+](=O)[O-])Nc1cccc2ccccc12
6,46 nM,O=C(NCCCCCCNS(=O)(=O)c1ccccc1[N+](=O)[O-])C1CCc2ccccc2C1 (centres undefined)
7,724 nM,O=C(NCCCCNS(=O)(=O)c1ccccc1[N+](=O)[O-])Nc1cccc2ccccc12
8,4120 nM,O=C(NC[C@H]1CC[C@H](CNS(=O)(=O)c2cccc3ccccc23)CC1)C1CCc2ccccc2C1 (some centres undefined)

# Reference: ChEMBL document CHEMBL1135172, “High-throughput synthesis optimization of sulfonamide NPY Y5 antagonists” (Bioorg Med Chem Lett, 2002)
